# Experimental data as given in patent US20080318246A1, “Deeply quenched enzyme sensors” (The Albert Einstein College of Medicine of Yeshiva …, priority 2007, published 2008).
# Square brackets hold non-standard residues; d marks the D form. Peptide text beside a SMILES is read from it. * marks the point of attachment. Acetyl(1-pyrenyl) = O=C(Cc1ccc2ccc3cccc4ccc1c2c34)*; Carminic acid = quencher bound covalently; Ala(Pyr) = not defined here; Dap = NC[C@H](N)C(=O)O
# Experiments:
# [1] = target: T1, PKA (Mus musculus, UniProt P05132); test: Control: phosphorylation-induced fluorescence change of pyrene peptides without quenching dye, with 14-3-3τ; assay type: biochemical, murine; design: made in house; conditions: absence of quenching dye, ATP, 5 μM peptide
# [2] = target: T1, PKA; test: Fluorescence increase of covalently quenched peptides P13, P14 upon phosphorylation by PKA; assay type: biochemical; conditions: for change in fluorescence upon phosphorylation by PKA: in the absence of 14-3-3
# Experimental: Pyrene-substituted peptides P13 (FIG. 15 Panel A, SEQ ID NO:21) and P14 (FIG. 15 Panel B, SEQ ID NO:22) were synthesized. […] The assay was performed with a total volume of 200 μL and was initiated with the addition of PKA enzyme. […]
# [3] = target: peptide P2; test: Apparent KD of lead quencher dyes with peptide P2 (quenching of pyrene fluorescence); assay type: binding; conditions: with 5 μM pyrene-labeled peptide P2, 100 mM Tris HCl pH 7.5, inner filter corrected
# Experimental: KD values were acquired for the set of the ten lead quenchers with peptide P2, in order to obtain a target range for the quencher:peptide ratios to be employed in the subsequent assays (vide infra). These apparent KD values were determined using the quenching of pyrene fluorescence as a barometer of peptide/quencher complex stability. […] An inner filter effect (at high dye concentrations) was corrected as previously described (Levine (1977) Clin. Chem. 23:2292-301).
# [4] = target: phosphorylated P5 peptide; test: Apparent KD of quencher with phosphorylated P5 peptide; assay type: binding
# Experimental: (§1) Varying concentrations of 10 dyes (FIG. 2 Panel B), ranging from 0.5-500 μM, were added to 5 μM pyrene-labeled P2 peptide in 100 mM Tris HCl pH 7.5 buffer (96 well plates). […] After correcting for the inner filter effect, the percentage of quench was plotted against the concentration of the dye. A nonlinear regression analysis fit of the data to the rectangular hyperbola model using the Sigma Plot version 8.02 software was used to obtain apparent KD values.
# [5] = target: peptide P5; test: Apparent KD of lead quencher/peptide pair, peptide P5; assay type: binding
# Experimental: as §1
# [6] = target: peptide P9; test: Apparent KD of lead quencher/peptide pair, peptide P9; conditions: read-out: Apparent KD; with peptide P9
# Experimental: as §1
Compound,% Fluorescence Enhancement [1],Kd [3],also measured
Ac-GRTDap(Pyr)RRFSYP-amide [P3],19%,–,–
AcGAla(Pyr)TGRRDap(Carminic acid)SLPA-amide (Ac-G[Ala(Pyr)]TGRR[Dap](Carminic acid)SLPA-NH2; reading uncertain) [P14],–,–,change in fluorescence upon phosphorylation by PKA [2]: No significant change in fluorescence
"Cc1cc(-c2ccc(/N=N/c3c(S(=O)(=O)O)cc4cc(S(=O)(=O)O)cc(N)c4c3O)c(C)c2)ccc1/N=N/c1c(S(=O)(=O)O)cc2cc(S(=O)(=O)O)cc(N)c2c1O [D48, Trypan Blue]",–,11.9 ± 3.6 µM,–
"O=C([O-])c1c(Cl)c(Cl)c(Cl)c(Cl)c1-c1c2cc(I)c(=O)c(I)c-2oc2c(I)c([O-])c(I)cc12.[Na+].[Na+] [D43, Rose Bengal]",–,7.5 ± 1.6 µM,Kd [4]: 0.21 ± 0.04 µM; Kd ([5]; with peptide P5): 0.4 ± 0.03 µM; Kd ([5]; with unphosphorylated P5 peptide): 0.4 ± 0.03 µM
C[C@@H](O)[C@H](NC(=O)[C@H](CCCNC(=N)N)NC(=O)CNC(=O)CCCCCNC(=O)Cc1ccc2ccc3cccc4ccc1c2c34)C(=O)NCC(=O)N[C@@H](CCCNC(=N)N)C(=O)N[C@@H](CCCNC(=N)N)C(=O)N[C@@H](Cc1ccccc1)C(=O)N[C@@H](CO)C(=O)N[C@@H](Cc1ccc(O)cc1)C(=O)N1CCC[C@H]1C(N)=O [P9],48%,–,–
"Nc1ccc(N=Nc2ccc(-c3ccc(N=Nc4c(S(=O)(=O)[O-])cc5cc(S(=O)(=O)[O-])c(N=Nc6ccccc6)c(O)c5c4N)cc3)cc2)c(N)c1.[Na+].[Na+] [D34, Chlorazol Black E]",–,7.7 ± 1.5 µM,–
"Cc1cc(-c2ccc(/N=N/c3ccc4c(S(=O)(=O)O)cc(S(=O)(=O)O)c(N)c4c3O)c(C)c2)ccc1/N=N/c1ccc2c(S(=O)(=O)O)cc(S(=O)(=O)O)c(N)c2c1O [D3, Evans Blue]",–,2.8 ± 0.8 µM,–
Ac-GRDap(Pyr)GRRFSYP-amide [P4],40%,–,–
"O=S(=O)([O-])c1ccc(N=Nc2ccc(N=Nc3c(O)c(S(=O)(=O)[O-])cc4cc(S(=O)(=O)[O-])ccc34)c(S(=O)(=O)[O-])c2)cc1.[Na+].[Na+].[Na+].[Na+] [D42, Ponceau S]",–,11.2 ± 2.7 µM,–
Aniline Blue WS [D27],–,18.1 ± 2.6 µM,Kd [6]: 0.6 ± 0.03 µM
"CC(=O)NCC(=O)N[C@@H](CCCNC(=N)N)C(=O)N[C@H](C(=O)NCC(=O)N[C@@H](CCCNC(=N)N)C(=O)N[C@@H](CCCNC(=N)N)C(=O)N[C@@H](CNC(=O)Cc1ccc2ccc3cccc4ccc1c2c34)C(=O)N[C@@H](CO)C(=O)N[C@@H](Cc1ccc(O)cc1)C(=O)N1CCC[C@H]1C(N)=O)[C@@H](C)O [P2, Ac-GRTGRRDap(Pyr)SYP-amide] (Ac-GRTGRR[Dap](Acetyl(1-pyrenyl))SYP-NH2)",51%,–,–
Ac-GRTGRRFSDap(Pyr)P-amide [P1],0%,–,–
"O=C(O)c1nn(-c2ccc(S(=O)(=O)O)cc2)c(O)c1N=Nc1ccc(S(=O)(=O)O)cc1 [D47, Tartrazine]",–,15 ± 2.1 µM,–
"Nc1c(S(=O)(=O)O)cc(Nc2ccc(Nc3nc(Cl)nc(Nc4cccc(S(=O)(=O)O)c4)n3)c(S(=O)(=O)O)c2)c2c1C(=O)c1ccccc1C2=O [D6, Reactive Blue 2]",–,19.6 ± 3.4 µM,–
"O=[N+]([O-])c1ccc2c(N=Nc3ccc4ccccc4c3O)c(O)cc(S(=O)(=O)[O-])c2c1.[Na+] [D18, Eriochrome Black T]",–,14.3 ± 3.3 µM,–
AcGAla(Pyr)TGRRDap(Reactive Blue 2)SLPA-amide [P13],–,–,change in fluorescence upon phosphorylation by PKA [2]: No significant change in fluorescence; increase in fluorescence upon phosphorylation by PKA ([2]; in the presence of 14-3-3τ (2.1 μM)): 1.5-2.3 fold
